According to the NIST ThermoML archive (doi:10.1016/j.jct.2013.08.029):
± gives the expanded uncertainty stated by the source.

Experiment: xn = mol fraction of the nth substance listed
Conditions: 101 kPa, Liquid, Vibrating tube method, x2 = 0.5

O=C(O)CC(=O)O [propanedioic acid] + C[N+](C)(C)CCO.[Cl-]
mass density (303.15 K): 1189.9 ± 0.6 kg/m3
mass density (308.15 K): 1187.3 ± 0.6 kg/m3
mass density (313.15 K): 1184.7 ± 0.6 kg/m3
mass density (318.15 K): 1182.1 ± 0.6 kg/m3
mass density (323.15 K): 1179.7 ± 0.6 kg/m3
